Assay [1] deals with Epidermal growth factor receptor (Homo sapiens), P00533 [L861Q]. Conditions: Compound concentration 100.0 nM.
Assay [2] deals with Fibroblast growth factor receptor 3 (Homo sapiens) (UniProt P22607). As to the kind of experiment: FGFR3 (h) Upstate kinase activity assay. Conditions: Compound concentration 10.0 uM.
In the next assay the test system is A549. As to the kind of experiment: Lung A549 cell line MDS Pharma Services Proliferation Assay. The assay is classed as functional, cell-based, Homo sapiens.
The target in assay [3] is Cyclin-dependent kinase 2/cyclin A (Homo sapiens) (UniProt P24941+P20248+P78396). Briefly: CDK2/ cyclin A (h) Upstate kinase activity assay. The assay is classed as protein-complex assay. Conditions: Compound concentration 10.0 uM.
Assay [4] concerns the target D(3) dopamine receptor (Homo sapiens) (UniProt P35462). Conditions: Compound concentration 10.0 uM.
Assay [5] concerns the target T1, Cytoplasmic tyrosine-protein kinase BMX (Homo sapiens) (UniProt P51813).
T1 sequence (whole entry): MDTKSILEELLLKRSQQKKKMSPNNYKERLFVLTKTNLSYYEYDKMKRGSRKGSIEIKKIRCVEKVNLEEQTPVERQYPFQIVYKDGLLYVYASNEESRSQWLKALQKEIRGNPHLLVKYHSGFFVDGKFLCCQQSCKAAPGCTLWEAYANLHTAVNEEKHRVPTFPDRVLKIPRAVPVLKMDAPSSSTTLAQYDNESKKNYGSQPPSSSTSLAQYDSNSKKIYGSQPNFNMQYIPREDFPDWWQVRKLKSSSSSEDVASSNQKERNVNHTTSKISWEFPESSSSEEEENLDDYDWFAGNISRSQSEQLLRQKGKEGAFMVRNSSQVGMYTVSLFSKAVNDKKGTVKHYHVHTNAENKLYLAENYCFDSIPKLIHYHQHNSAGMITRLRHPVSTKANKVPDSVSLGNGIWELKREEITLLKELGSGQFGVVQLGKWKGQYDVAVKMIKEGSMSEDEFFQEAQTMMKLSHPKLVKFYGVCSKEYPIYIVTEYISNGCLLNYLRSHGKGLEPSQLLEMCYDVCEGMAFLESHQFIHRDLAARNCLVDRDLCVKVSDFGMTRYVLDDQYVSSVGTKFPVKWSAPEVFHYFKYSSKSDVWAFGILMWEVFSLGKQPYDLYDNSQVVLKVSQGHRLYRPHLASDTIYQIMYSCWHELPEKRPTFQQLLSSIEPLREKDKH
As to the kind of experiment: Bmx (h) Upstate kinase activity assay. Conditions: Compound concentration 10.0 uM.

Assay [6] deals with Insulin-like growth factor 1 receptor (Homo sapiens) (UniProt P08069). As to the kind of experiment: IGF-1R (h) Upstate kinase activity assay. Conditions: Compound concentration 10.0 uM.
Insulin-like growth factor 1 receptor (Homo sapiens), sequence (P08069 31-736 limits assumed): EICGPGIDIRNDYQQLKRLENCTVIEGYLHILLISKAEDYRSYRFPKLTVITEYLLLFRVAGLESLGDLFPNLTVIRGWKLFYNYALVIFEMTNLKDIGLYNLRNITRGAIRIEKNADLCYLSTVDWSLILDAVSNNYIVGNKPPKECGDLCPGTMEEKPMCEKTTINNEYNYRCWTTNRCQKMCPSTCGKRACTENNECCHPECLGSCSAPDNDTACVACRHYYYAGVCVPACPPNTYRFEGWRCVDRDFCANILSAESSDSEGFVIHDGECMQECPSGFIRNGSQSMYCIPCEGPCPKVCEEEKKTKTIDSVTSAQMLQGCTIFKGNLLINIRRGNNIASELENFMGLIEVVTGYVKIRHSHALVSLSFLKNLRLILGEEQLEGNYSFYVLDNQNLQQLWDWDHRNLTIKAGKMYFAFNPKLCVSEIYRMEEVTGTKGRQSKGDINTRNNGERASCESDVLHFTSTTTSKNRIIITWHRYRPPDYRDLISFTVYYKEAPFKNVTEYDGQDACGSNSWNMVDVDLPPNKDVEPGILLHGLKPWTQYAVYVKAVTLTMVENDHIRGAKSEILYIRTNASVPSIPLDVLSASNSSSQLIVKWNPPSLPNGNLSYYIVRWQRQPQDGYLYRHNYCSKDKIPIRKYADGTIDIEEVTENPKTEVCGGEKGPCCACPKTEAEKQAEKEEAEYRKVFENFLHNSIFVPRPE
Insulin-like growth factor 1 receptor (Homo sapiens), sequence (P08069 741-1367 limits assumed): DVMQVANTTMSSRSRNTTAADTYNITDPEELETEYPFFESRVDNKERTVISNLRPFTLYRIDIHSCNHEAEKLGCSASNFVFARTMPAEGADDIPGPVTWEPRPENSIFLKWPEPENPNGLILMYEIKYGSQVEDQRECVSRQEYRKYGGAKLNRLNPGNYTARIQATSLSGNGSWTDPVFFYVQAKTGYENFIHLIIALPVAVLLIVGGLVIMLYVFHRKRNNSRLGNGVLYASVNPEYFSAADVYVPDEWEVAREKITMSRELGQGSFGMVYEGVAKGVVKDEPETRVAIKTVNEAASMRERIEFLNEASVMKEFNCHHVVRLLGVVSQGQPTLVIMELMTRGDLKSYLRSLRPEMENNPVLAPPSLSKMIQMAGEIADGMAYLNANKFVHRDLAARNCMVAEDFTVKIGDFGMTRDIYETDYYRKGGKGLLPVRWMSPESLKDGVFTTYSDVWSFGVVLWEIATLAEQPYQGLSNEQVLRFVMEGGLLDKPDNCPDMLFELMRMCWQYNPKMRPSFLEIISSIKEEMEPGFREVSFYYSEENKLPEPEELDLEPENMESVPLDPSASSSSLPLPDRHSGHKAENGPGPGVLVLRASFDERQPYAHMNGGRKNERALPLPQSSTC
For assay [7], the target named is Tyrosine-protein kinase BTK (Homo sapiens) (UniProt Q06187). As to the kind of experiment: BTK (h) Upstate kinase activity assay. Conditions: Compound concentration 10.0 uM.
Tyrosine-protein kinase BTK (Homo sapiens), sequence (Q06187 whole entry): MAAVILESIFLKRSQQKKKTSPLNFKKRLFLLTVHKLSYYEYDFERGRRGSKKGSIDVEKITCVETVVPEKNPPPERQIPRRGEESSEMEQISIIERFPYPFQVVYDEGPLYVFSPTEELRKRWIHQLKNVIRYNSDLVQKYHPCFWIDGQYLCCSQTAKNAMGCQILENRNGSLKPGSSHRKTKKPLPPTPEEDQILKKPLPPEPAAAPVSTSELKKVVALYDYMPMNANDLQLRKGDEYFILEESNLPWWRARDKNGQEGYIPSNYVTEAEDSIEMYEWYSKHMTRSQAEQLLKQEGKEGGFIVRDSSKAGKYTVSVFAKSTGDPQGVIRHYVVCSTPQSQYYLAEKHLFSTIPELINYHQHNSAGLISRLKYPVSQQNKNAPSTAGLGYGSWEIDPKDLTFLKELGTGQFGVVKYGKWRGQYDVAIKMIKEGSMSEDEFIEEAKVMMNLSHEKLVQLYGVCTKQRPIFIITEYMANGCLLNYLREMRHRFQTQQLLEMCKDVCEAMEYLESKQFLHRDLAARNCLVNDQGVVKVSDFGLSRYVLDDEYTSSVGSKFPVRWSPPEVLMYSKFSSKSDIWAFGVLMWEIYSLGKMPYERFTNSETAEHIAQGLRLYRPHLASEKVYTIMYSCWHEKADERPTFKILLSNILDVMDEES
Assay [8] addresses T2, Protein kinase C iota type (Homo sapiens) (UniProt P41743).
T2 sequence (whole entry): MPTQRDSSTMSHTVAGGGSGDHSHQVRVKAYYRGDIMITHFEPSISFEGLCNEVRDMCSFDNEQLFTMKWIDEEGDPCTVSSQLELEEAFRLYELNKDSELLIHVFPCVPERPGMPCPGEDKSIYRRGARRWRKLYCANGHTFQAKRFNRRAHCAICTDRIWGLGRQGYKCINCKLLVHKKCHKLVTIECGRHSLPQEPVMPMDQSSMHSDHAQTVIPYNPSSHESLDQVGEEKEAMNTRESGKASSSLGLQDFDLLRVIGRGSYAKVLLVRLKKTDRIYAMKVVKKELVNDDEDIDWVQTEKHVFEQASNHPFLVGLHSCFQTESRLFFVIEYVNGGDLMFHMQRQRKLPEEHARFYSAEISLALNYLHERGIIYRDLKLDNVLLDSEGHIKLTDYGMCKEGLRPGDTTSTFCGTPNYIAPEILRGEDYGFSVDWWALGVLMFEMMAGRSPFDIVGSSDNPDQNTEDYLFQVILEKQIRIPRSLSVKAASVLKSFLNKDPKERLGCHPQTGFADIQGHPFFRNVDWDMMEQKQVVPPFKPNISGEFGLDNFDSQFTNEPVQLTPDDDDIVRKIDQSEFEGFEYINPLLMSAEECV
Briefly: PKCiota (h) Upstate kinase activity assay. Conditions: Compound concentration 10.0 uM.

In assay [9] the target is Ribosomal protein S6 kinase alpha-5 (Homo sapiens) (UniProt O75582). Briefly: MSK1 (h) Upstate kinase activity assay. Conditions: Compound concentration 10.0 uM.
Ribosomal protein S6 kinase alpha-5 (Homo sapiens), sequence (O75582 whole entry, looked up): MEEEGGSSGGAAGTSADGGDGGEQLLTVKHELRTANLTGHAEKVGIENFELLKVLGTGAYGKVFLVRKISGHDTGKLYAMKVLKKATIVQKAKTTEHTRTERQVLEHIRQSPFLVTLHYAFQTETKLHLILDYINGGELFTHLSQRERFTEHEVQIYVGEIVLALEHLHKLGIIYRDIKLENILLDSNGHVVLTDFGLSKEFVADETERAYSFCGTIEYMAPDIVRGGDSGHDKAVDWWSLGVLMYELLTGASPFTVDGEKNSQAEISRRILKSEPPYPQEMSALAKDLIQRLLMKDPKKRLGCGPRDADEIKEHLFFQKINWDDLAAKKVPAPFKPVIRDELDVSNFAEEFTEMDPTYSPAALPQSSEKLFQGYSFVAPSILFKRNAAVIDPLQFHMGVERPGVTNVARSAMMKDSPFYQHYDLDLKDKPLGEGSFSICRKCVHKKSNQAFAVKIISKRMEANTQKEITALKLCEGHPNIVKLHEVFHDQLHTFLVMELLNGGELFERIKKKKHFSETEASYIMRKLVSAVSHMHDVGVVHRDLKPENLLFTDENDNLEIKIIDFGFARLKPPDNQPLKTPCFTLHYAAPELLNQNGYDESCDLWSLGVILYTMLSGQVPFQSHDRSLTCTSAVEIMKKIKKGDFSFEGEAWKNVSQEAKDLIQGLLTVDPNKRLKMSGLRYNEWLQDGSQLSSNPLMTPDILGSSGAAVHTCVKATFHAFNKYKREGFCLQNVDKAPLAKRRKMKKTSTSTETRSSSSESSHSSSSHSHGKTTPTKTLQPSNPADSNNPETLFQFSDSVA
The test system of a further assay is K562. As to the kind of experiment: Leukemia K562 cell line MDS Pharma Services Proliferation Assay. The format is functional, cell-based, Homo sapiens.
Another assay deals with Hep 3B2. As to the kind of experiment: Liver Hep 3B cell line MDS Pharma Services Proliferation Assay. The format is functional, cell-based, Homo sapiens.
The target in assay [10] is T3, Mitogen-activated protein kinase 13 (Homo sapiens) (UniProt O15264).
T3 sequence (whole entry): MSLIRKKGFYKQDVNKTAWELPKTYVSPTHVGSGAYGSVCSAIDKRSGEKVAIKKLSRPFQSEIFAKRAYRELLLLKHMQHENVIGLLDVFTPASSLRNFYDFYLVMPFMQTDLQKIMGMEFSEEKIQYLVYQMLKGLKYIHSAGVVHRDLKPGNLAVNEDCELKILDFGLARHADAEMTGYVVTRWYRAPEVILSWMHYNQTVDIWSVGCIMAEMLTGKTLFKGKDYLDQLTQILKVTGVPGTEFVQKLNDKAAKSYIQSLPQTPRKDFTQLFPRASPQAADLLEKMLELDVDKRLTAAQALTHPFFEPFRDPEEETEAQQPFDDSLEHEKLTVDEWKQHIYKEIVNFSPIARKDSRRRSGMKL
As to the kind of experiment: SAPK4 (h) Upstate kinase activity assay. Conditions: Compound concentration 10.0 uM.

D(3) dopamine receptor (Homo sapiens), sequence (P35462 whole entry): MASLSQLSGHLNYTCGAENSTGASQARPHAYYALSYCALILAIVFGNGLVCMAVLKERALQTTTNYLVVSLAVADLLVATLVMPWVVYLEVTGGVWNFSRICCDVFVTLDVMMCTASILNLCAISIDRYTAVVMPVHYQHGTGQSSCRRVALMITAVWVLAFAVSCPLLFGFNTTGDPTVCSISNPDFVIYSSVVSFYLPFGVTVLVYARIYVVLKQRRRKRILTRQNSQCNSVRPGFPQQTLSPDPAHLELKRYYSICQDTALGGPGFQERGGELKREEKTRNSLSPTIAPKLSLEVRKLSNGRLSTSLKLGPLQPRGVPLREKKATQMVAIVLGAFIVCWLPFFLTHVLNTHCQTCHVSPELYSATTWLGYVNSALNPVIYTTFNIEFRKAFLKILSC
Fibroblast growth factor receptor 3 (Homo sapiens), sequence (P22607 23-806 limits assumed): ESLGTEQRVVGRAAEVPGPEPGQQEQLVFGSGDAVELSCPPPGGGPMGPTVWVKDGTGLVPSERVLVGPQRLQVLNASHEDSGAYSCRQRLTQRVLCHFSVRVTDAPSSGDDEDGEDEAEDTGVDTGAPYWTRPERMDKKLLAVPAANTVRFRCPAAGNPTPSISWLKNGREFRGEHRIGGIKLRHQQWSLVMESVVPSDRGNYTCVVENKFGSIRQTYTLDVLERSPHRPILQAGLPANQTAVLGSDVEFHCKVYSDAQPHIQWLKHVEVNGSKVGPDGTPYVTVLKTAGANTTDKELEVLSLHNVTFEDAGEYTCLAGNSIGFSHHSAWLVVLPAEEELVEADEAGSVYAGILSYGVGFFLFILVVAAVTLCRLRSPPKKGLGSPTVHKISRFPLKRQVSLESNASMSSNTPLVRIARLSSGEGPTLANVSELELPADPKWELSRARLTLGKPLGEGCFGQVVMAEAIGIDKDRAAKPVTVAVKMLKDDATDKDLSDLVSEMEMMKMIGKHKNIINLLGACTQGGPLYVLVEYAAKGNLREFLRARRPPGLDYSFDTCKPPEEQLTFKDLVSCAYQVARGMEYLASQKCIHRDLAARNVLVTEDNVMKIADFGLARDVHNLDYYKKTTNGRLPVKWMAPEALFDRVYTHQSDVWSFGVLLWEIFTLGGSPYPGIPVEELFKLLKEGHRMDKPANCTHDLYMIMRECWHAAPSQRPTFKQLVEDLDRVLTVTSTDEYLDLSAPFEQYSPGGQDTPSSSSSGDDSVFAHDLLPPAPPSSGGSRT

Regarding `Cn1cc(Cl)c2c(Oc3c(F)cc(Nc4cc(Cl)nc(N)n4)cc3F)ccnc21` [BAY-4900], the residual activity in [1] was 100%.
On to `Cc1c[nH]c2nccc(Oc3c(F)cc(Nc4cc(Cl)nc(N)n4)cc3F)c12` [BAY-549], for which the inhibition in assay [2] was 12%; in assay [3], 20%; in assay [4] it was -5.8%; in assay [5], 18%; in assay [6] it was 41%; in [7], 1%. Besides, the inhibition in assay [8] was 18%; in [9], 86%; in assay [10] it was 16%. For the same molecule, the IC50 with A549 (Homo sapiens, A549) was determined as 1.5 µM; in the assay on K562 (Homo sapiens, K562) it was 8.3 µM; in the assay on Hep 3B2 (Homo sapiens, Hep3B), 1.3 µM. The TGI in the assay with A549 (Homo sapiens, A549) is 25 µM; in the assay with K562 (Homo sapiens, K562) it was greater than 100 µM; with Hep 3B2 (Homo sapiens, Hep3B), 45 µM. For the same molecule, the CC50 in the assay on A549 (Homo sapiens, A549, read-out: LC50 (the source's name)) is greater than 100 µM; in the assay on K562 (Homo sapiens, K562, read-out: LC50 (the source's name)), greater than 100 µM; in the assay on Hep 3B2 (Homo sapiens, Hep3B, read-out: LC50 (the source's name)) it was greater than 100 µM. The “Mean % growth (n = 2) for 1.0 µM probe concentration” value was 42% in the assay on A549 (± SEM 2 % growth), 69% with K562 (± SEM 4 % growth) and 51% with Hep 3B2 (± SEM 6 % growth). The figures for the “Mean % growth (n = 2) for 10.0 µM probe concentration” value in the assay on A549 (± SEM 2 % growth), in the assay with K562 (± SEM 3 % growth) and in the assay on Hep 3B2 were 7%, 42% and 11%, respectively. The results for the “Mean % growth (n = 2) for 100.0 µM probe concentration” value with A549 (± SEM 3 % growth), in the assay on K562 (± SEM 6 % growth) and in the assay on Hep 3B2 (± SEM 5 % growth) were -15%, 32% and -4%, respectively. In addition, the “Mean % growth (n = 2) for 0.01 µM probe concentration” value in the assay on A549 (± SEM 4 % growth) amounted to 103%; with K562 (± SEM 7 % growth), 95%; in the assay on Hep 3B2 (± SEM 8 % growth) it was 90%. Besides, the “Mean % growth (n = 2) for 0.1 µM probe concentration” value is 97% with A549 (± SEM 4 % growth), 92% in the assay on K562 (± SEM 5 % growth) and 82% with Hep 3B2 (± SEM 3 % growth).

The term residual activity denotes the share of the control activity or signal that is left under treatment. One may read the inhibition as the relative decrease from the control value, in per cent. For orientation: IC50 means the concentration that gives 50% inhibition. Low values mean higher potency, high ones lower potency. The term TGI denotes the concentration giving total growth inhibition. Lower therefore signals greater sensitivity of the cells.

These data come from ChEMBL document CHEMBL4507274 (2021).
